test: Human HepG2 cell viability assay in 384 well format; format: toxicity, cell-based; set-up: dose 125 nL, time 70.5 hour; concentration not given beside the values; settings: HepG2 cells, read-out: Inhibition

Row | Compound | cytotoxicity at 70.5 h
1 | CCN(C)C[C@@H]1CN(C(=O)c2cc(-c3ccc(F)cc3)n[nH]2)C[C@@H]1CO | -4.68%
2 | CN(C)c1cncc(C2CCN(CCO)CC2)n1 | -8.74%
3 | OCC1(NCc2cnc(-c3cccs3)s2)CCOCC1 | -6.15%
4 | N#Cc1ccc(F)c(CNC(=O)NC(CO)c2ccccc2)c1 (stereo not drawn) | 13.7%
5 | CCc1ncc(C(=O)N2CCOCC2CC(=O)c2ccccc2)s1 (stereo not drawn) | -5.53%
6 | COCCN1CCC(CNc2cnc3ccccc3n2)CC1 | -1.83%
7 | Cc1noc(-c2ccnc(N3CCC(CN4CCOCC4)CC3)c2)n1 | 11%
8 | Cc1ccc(Oc2ncccc2CNC2Cc3ccccc3C2)cn1 | -8.21%
9 | CNc1cc(C2CCCN(C(=O)c3ccc(=O)[nH]n3)C2)ccn1 (stereo not drawn) | -0.0309%
10 | CCOc1ncccc1CNC(=O)c1c(C)oc(C)c1C | -9.43%
11 | CCN1CCOC(CNCc2ccccn2)C1 (stereo not drawn) | -7.88%
12 | Cc1nc(CCC(=O)NC2CCC2)cc(C2CCCNC2)n1 (stereo not drawn) | -9.96%
13 | O=C1NC(c2cccnc2)=NC12CCN(CCCc1ccccc1)CC2 | -8.89%
14 | CCS(=O)(=O)Nc1ccc2oc(C)c(C(=O)OC)c2c1 | -15%
15 | COc1c(CNCCc2c[nH]c3cc(F)ccc23)c(C)nn1C | 3.85%
16 | CCOC1CCN(C(=O)NCc2cccc(-n3cccn3)c2)CC1 | -5.08%
17 | Cc1nn(C)c(C)c1-c1ccc(=O)n(C(C)C(=O)NC2CCCCC2)n1 (stereo not drawn) | -17.2%
18 | CCCc1cc(C(=O)N2Cc3cnc(C(C)(C)C)nc3C2)ccn1 | 0.0745%
19 | CCS(=O)(=O)N1CCOC2(CCCN(c3ccccn3)C2)C1 (stereo not drawn) | -2.6%
20 | COc1ncccc1NC(=O)N(Cc1ccccn1)C1CC1 | -17.7%
21 | Cc1nn(C)c(Cl)c1C1CCCN1C(=O)c1ccc(C(N)=O)cn1 (stereo not drawn) | 54.9%

Row | Compound | cytotoxicity at 70.5 h
22 | O=C(N1CCCC1)N1CCC[C@]2(C[C@@H](Oc3ncccc3F)CO2)C1 | -4.8%
23 | Cc1c(F)cccc1CN1CCn2nc(CNC(=O)N(C)C)cc2C1 | 20%
24 | CNC(=O)c1ncn2c1CN(CCC(C)C)S(=O)(=O)c1ccccc1-2 | -9.5%
25 | CC(C)N1CCOC(c2cc(CCO)[nH]n2)C1 (stereo not drawn) | -1.76%
26 | COc1ccc(CN2CCC3(CC2)CCN(CC(C)C)C3=O)cc1 | -10.6%
27 | COCCOc1ccc(CNc2nc3ccccc3o2)cn1 | -10.8%
28 | O=C(O)C1(Cc2cc(-c3ccccc3F)no2)CCOCC1 | -10.6%
29 | COc1cccc(OCCc2nc3c(cc2C(N)=O)CCC3)c1 | 1.85%
30 | Cc1cccc(N2Cc3nc(N4CCC(C)CC4)ncc3C2=O)c1 | -5.12%
31 | COCc1nc(N2CC[C@H](N(C)C)C2)c2cnn(C)c2n1 | -10%
32 | CC(NC(=O)NCCNc1cccc(F)c1C#N)c1nccs1 (stereo not drawn) | -2.26%
33 | CN(C)C(=O)CC1CCOc2ccccc21 (stereo not drawn) | 0.971%
34 | Cc1cn2c(=O)c(-c3ccnc(N[C@@H](C)CO)n3)cnc2s1 | -5.83%
35 | O=C(NC1CCS(=O)(=O)C1)c1ccccc1SCc1cscn1 (stereo not drawn) | -9.17%
36 | Cc1nc(-c2cccnc2)ncc1C(=O)N1CCC(c2ncc[nH]2)CC1 | -3.5%
37 | COc1cccc(-c2ncc(CN3C[C@@H]4CC[C@H](C3)N(C)C4=O)s2)c1 | -0.692%
38 | Cc1noc([C@@]23CCO[C@@H]2CCN(C(=O)c2cc(C)c(C)s2)C3)n1 | -0.38%
39 | CC(=O)N1CCCC1CCc1ccc(Cl)nn1 (stereo not drawn) | -2.45%
40 | O=C(CC1CCCC1)N1C[C@@H]2CCN(c3cccnc3)C[C@@H]2C1 | -7.38%
41 | Cc1ccc2c(c1)c(CNC(C)Cn1nc(C)cc1C)nn2C (stereo not drawn) | 2.8%
42 | CS(=O)(=O)NC[C@]12COC[C@H]1CN(C(=O)c1cnccn1)C2 | 19.5%

Row | Compound | cytotoxicity at 70.5 h
43 | COc1ccccc1C(=O)NC(c1ccccn1)[C@H]1CC[C@H](CN)CC1 (stereo partly drawn) | -4.28%
44 | Cn1cc(CN2CCC(F)(F)C3(CCN(c4ncccn4)C3)C2)cn1 (stereo not drawn) | -12.2%
45 | Cc1cc(N(C)Cc2ncc[nH]2)nc(-c2ccccc2)n1 | -6.89%
46 | COc1cc(C(=O)NCCCc2ccccc2)on1 | -1.09%
47 | Cc1cc(CC2COc3ccccc3C2)cnc1N (stereo not drawn) | -13.2%
48 | COc1ccc2c(c1OC)Cc1c-2nc(N)c(C#N)c1C1CCOC1 (stereo not drawn) | -19.2%
49 | Cc1ccc(C(=O)NCc2ccc(N3CCNC(=O)C3)c(F)c2)cc1 | -0.234%
50 | CN1N=C(C(=O)N2CCN(c3ncccc3Cl)CC2)CCC1=O | 12%
51 | CC(C)c1ncc2c(n1)CN(Cc1cccc(C(N)=O)c1)CC2 | -4.48%
52 | Cc1ccc(C(=O)N2CCCC3(CCCC(=O)N3C)C2)cc1F (stereo not drawn) | -4.57%
53 | O=C(NCCNc1ccccn1)NC1CCCC1 | -4.33%
54 | C=C(C)COc1ccc(C(=O)NCC2CC(CC)=NO2)cc1 (stereo not drawn) | -15.2%
55 | c1cc(COc2ccc(CNC3CCc4ncnn4C3)cc2)ccn1 (stereo not drawn) | -2.99%
56 | CC1CCN(C(=O)c2cnc(CC3CCCN(C)C3)cn2)CC1 (stereo not drawn) | -9.3%
57 | CN(C)CCNC(=O)c1cc(-c2cnc(N3CCOCC3)nc2)cn1C | -8.38%
58 | O=C1CCCC2(CCN(C(=O)c3ccccn3)CC2)N1 | -1.46%
59 | CCN1CCC(=O)N(C)Cc2cc(F)ccc21 | -8.5%
60 | CC(C)c1nnc2n1CC(CNCc1ccc3c(c1)OCCO3)CC2 (stereo not drawn) | -3.48%
61 | FC(F)(F)c1ccc(-n2ccnc2-c2cc3n(n2)CCNC3)cn1 | 12.7%
62 | O=C(NCC(O)c1ccccc1C(F)(F)F)c1cccnc1 (stereo not drawn) | -11%
63 | Cc1scc(C(=O)N2CCC3(CC(=O)NC3=O)C2)c1-c1ccccc1 (stereo not drawn) | -11%

Row | Compound | cytotoxicity at 70.5 h
64 | CC(C#N)CSc1ccccc1NCC(=O)Nc1ccc(F)cc1 (stereo not drawn) | 2.62%
65 | Cc1ccc(-c2ccc(Cl)nn2)cc1S(N)(=O)=O | -7.63%
66 | Cc1ccc(C)c(-n2ncc(C(=O)N(C)CCc3ccccn3)c2N)c1 | 4.61%
67 | CC(NC(=O)c1cnccn1)c1nnc2ccccn12 (stereo not drawn) | -4.81%
68 | Cc1nnc2n1CCN(C(=O)c1ccn(-c3cccc(F)c3)n1)C2 | 5.14%
69 | COc1ccccc1N(C)S(=O)(=O)c1cc(C(=O)O)cs1 | -4.98%
70 | O=S(=O)(c1ccc(Cl)s1)N1CCCn2ncnc21 | -1.11%
71 | NC(=O)COc1ccc(CN2CCC(O)(CN3CCCCC3)C2)cc1Cl (stereo not drawn) | -12.1%
72 | CC(c1ccccc1)n1c(SCC(=O)O)nnc1-c1ccccc1Cl (stereo not drawn) | -4%
73 | O=C1CCC(=O)c2oc3ccccc3c2N1 | -5.85%
74 | Cc1cncc(C(=O)NCC2COCc3c(C)nnn3C2)c1 (stereo not drawn) | 0.75%
75 | O=C1OC2(CCN(CC3CCCO3)CC2)CN1CCc1ccccc1 (stereo not drawn) | 2.25%
76 | COCC(=O)Nc1ccccc1Sc1c(C)n[nH]c1C | 25.1%
77 | O=C1CC2(CCN(CCCO)CC2)CN1Cc1ccc(F)c(F)c1 | -5%
78 | c1ccc(C2CCCN2Cc2nnnn2C2CC2)cc1 (stereo not drawn) | -2.74%
79 | Cc1nnc(SCC(=O)NCC(c2ccccc2Cl)N(C)C)s1 (stereo not drawn) | -7.07%
80 | O=C(CCc1nnc(-c2ccccc2)o1)N1CCCC1c1ccccn1 (stereo not drawn) | 1.97%
81 | CCn1nc(C)c(CNCCn2cc(C)cn2)c1C | -4.46%
82 | CCOCC1CCN(C(=O)C(c2ccccc2F)N(C)C)CC1 (stereo not drawn) | -8.49%
83 | CCCN1CCC(Nc2cc(-c3ccccc3)ccc2OC)CC1 | 0.639%
